# Data taken from US4431807A, “4-Methyl-5-(unsubstituted and substituted phenoxy)-6-methoxy-8-(aminoalkylamino)quinolines” (priority 1981, dated 1984).
# Like-named read-outs stand apart in the source and are kept apart here.
# How the values were obtained:
# [1] = system: Plasmodium berghei; assay: Blood schizonticidal (suppressive) test, Rane mouse test, P. berghei; format: in vivo, Plasmodium berghei KBG 173 in ICR/HA Swiss mice
# Source text: (§1) Blood Schizonticidal Test (Mouse), University of Miami, Rane (Suppressive)
# (§2) This system is based on comparisons of responses to test compounds by Plasmodium berghei KBG 173 malaria in mice as expressed in mean survival times and the mean survival times of untreated controls. Thus, compounds noted as active produce increases in the survival times of the treated animals that are significant when compared with the survival times of untreated controls. Since an established disease is less sensitive to treatment than a disease in the early stages of development, treatment is withheld until the parasitemia is relatively high in order to insure a more reliable assay of activity and the selection of appropriate compounds for intensive preclinical studies.
# (§3) Utilizing young ICR/HA Swiss mice and a standard inoculum of Plasmodium berghei KBG 173, it is possible to produce a uniform disease fatal to 100% of untreated animals within 6 to 8 days with a mean survival time of 6.2 days. Test animals weigh from 18 to 22 grams but weight variations in any given experimental or control group are confined to 2-3 grams. All animals in any given test are approximately of the same age. Animals on test are housed in metal-topped plastic cages, given a standard laboratory diet and water ad libitum.
# (§4) Test animals receive an intraperitoneal injection of 0.5 ml of 1:100 dilution of heparinized heart's blood with a minimum of 90% parasitized cells (4×10^7 cells), drawn from donor mice infected one week earlier with Plasmodium berghei. The donor stran is maintained by weekly passages in separate groups of mice inoculated with a 0.5 ml of 1:500 dilution of heparinized heart's blood.
# (§5) Test compounds are administered after dissolution or suspension in peanut oil. A single dose is given subcutaneously 72 hours after the mice are infected with Plasmodium berghei. At this time a 10-15 percent parasitemia has developed; the disease is well established but has not produced sufficient debility to alter the response of the host to toxic effects of the drug on test. Since treatment is withheld for three days to permit the infection to become well established and death occurs in untreated controls within 6-8 days, it is believed that this system presents a candidate compound with the maximum challenge. In order to check factors such as changes in the infectivity of Plasmodium berghei or in the susceptibility of the host or to detect technical errors, a group of infected animals treated with pyrimethamine at dose levels producing definite increases in survival time is included as a positive control in every experiment.
# (§6) In each experiment test compounds are administered in graded doses. […] However, if an active drug is toxic for the host, its toxicity may become a limiting factor; continued increases in dose levels also increase the toxic effects and may result in the diminution of survival times. Deaths prior to the sixth day, when untreated controls begin to die, are regarded as non-parasitic and become the basis for toxicity evaluations. Treated animals are kept under observation for 60 days. Survivors at the end of this period of time are considered as cured.
# (§7) An increase of 100% in mean survival time is considered the minimum effective response for a candidate compound. In calculating mean survival time, toxic deaths and 60 day survivors are not included.
# (§8) The antimalarial activity data acquired by the two test procedures described above are listed in Tables 2 and 3 for the compounds of this invention. In Table 4, the most promising compound of the series, compound 1, is compared directly with primaquine together with some additional test data for compound 1 compared to primaquine. In all the work reported herein primaquine is used in the form of the diphosphate salt. The test data are expressed in the form of the number of cures at a given dose level. […]
# [2] = as above; format: in vivo, Plasmodium berghei KBG 173 in ICR/HA Swiss mice; settings: mouse, in vivo, sc
# Source text: as §1, §2, §3, §4, §5, §6, §7, §8
# [3] = system: Plasmodium vivax, P. malariae and P. ovale malaria; settings: cited from earlier work
# [4] = system: P. cynomolgi; assay: Combination drug therapy including chloroquine as suppressive adjuvant, radical curative studies; format: in vivo, P. cynomolgi in rhesus monkeys; settings: for Activity at 3.5 mg/kg (×1): primaquine with chloroquine, compound 1 without chloroquine; for Fully curative dose level: single dose, with chloroquine
# [5] = system: Plasmodium berghei; settings: cited from earlier work
# [6] = system: Plasmodium cynomolgi; settings: cited from earlier work
# [7] = in vivo; settings: mouse, po
# [8] = in vivo; settings: rat, po, Acute Oral LD50, rats
# [9] = in vivo; settings: guinea pig, po
# [10] = 160 mg/kg × 1, s.c., five mice, Table III
# [11] = 320 mg/kg × 1, s.c., five mice, Table III
# [12] = 640 mg/kg × 1, s.c., five mice, Table III
# [13] = 1.75 mg/kg base × 1, oral, plus chloroquine
# [14] = 3.5 mg/kg base × 1, oral, plus chloroquine
# [15] = 7 mg/kg base × 1, oral, plus chloroquine
# [16] = 0.875 mg/kg base × 1, oral, without chloroquine
# [17] = 3.5 mg/kg base × 1, oral, without chloroquine
# [18] = 14 mg/kg base × 1, oral, without chloroquine
smiles,measurement,setting,value
"COc1cc(NC(C)CCCN)c2ncccc2c1 (centres unmarked) [Primaquine Diphosphate, 8-((4-amino-1-methylbutyl)amino)-6-methoxy-quinoline, reference compound]",Extension of survival relative to controls,"[1]; 80 mg/kg × 1, s.c., Table III",9 days
same,Extension of survival,"[1]; 160 mg/kg salt, s.c., Table IV A-1",9 days
same,Extension of survival relative to controls,"[1]; 160 mg/kg × 1, s.c., Table III",9 days
same,Suppressive activity (active/inactive),[1]; [10],"A (Active, 7 Days or more estension of survival relative to controls.)"
same,Toxic,[1]; [10],2T
same,Toxic,[1]; [11],5T
same,Toxic,[1]; [12],5T
same,"Cures, Rane mouse test","[1]; all doses, s.c., Table IV A-1",No Cures
same,"Toxicity and curative activity, Rane mouse test",[1]; any dose level,toxic and non-curative at any dose level
same,mortality,"[2]; 320 mg/kg × 1, s.c., five mice, Table III, read-out: Toxic (converted)",40%
same,mortality,"[2]; 640 mg/kg salt, s.c., Table IV A-1, read-out: Toxic deaths (converted)",100%
same,Radical curative (tissue) activity,[3]; clinical use,effective in clearing the tissues of parasites
same,Suppressive activity (blood schizonticide),[3]; clinical use,relatively ineffective as a blood schizonticide
same,Toxicity in man,[3]; single curative dose,precludes administration of a single curative dose
same,Relapse,[4]; [13],2R
same,Cure,[4]; [14],2C
same,Relapse,[4]; [14],1R
same,Suppressive failure,[4]; [14],1SF
same,Cure,[4]; [15],2C
same,Relapse,[4]; [15],1R
same,Suppressive failure,[4]; [15],1SF
same,Cure,"[4]; 14 mg/kg base × 1, oral, plus chloroquine",2C
same,Activity at 3.5 mg/kg (×1),[4],effective although a relapse was observed in one of the four animals
same,Fully curative dose level,[4],14 mg/kg
same,Δ MST,"[5]; 160 mg/kg, 5 mice, Table I",9 days
same,Toxic deaths,"[5]; 640 mg/kg, 5 mice, Table I",5T
same,Suppressive activity,"[5]; non-toxic dose levels, prior art comparison",very weak activity
same,Radical curative activity,"[6]; 0.316 mg/kg, prior art comparison",inactive
same,"Radical curative activity, cures","[6]; 1.0 mg/kg (× 7), Table I",1/2
same,% cures (radical curative),[6]; 1.0 mg/kg,50%
same,% cures (radical curative),[6]; 1.3 mg/kg,100%
"COc1cc(NC(C)CCCN)c2nccc(C)c2c1Oc1cccc(C(F)(F)F)c1.O=C(O)CCC(=O)O (centres unmarked) [Compound 1, 8-(4-Amino-1-methylbutylamino)-6-methoxy-4-methyl-5-(3-trifluoromethylphenoxy)quinoline Succinate]",Extension of survival,"[1]; 5 mg/kg salt, s.c., Table IV A-1",7 days
same,Cures (60 days survival),"[1]; 5 mg/kg × 1, s.c., five mice, Table III",1C
same,Cures (60 days survival),"[1]; 10 mg/kg × 1, s.c., five mice, Table III",3C
same,Cures (60 days survival),"[1]; 20 mg/kg × 1, s.c., five mice, Table III",5C
same,Cures (60 days survival),"[1]; 40 mg/kg × 1, s.c., five mice, Table III",5C
same,Cures (60 days survival),"[1]; 80 mg/kg × 1, s.c., five mice, Table III",5C
same,Cures (60 days survival),[1]; [10],5C
same,Cures (60 days survival),[1]; [11],5C
same,Toxic deaths,"[1]; 640 mg/kg salt, s.c., Table IV A-1",4T
same,Cures (60 days survival),[1]; [12],1C
same,Toxic,[1]; [12],4T
same,minimal effective dose,"[1]; Plasmodium berghei, sc, single dose, read-out: Curative dose, suppressive test",10 mg/kg
same,LD50,[7],236 mg/kg
same,Relapse,"[4]; 0.4375 mg/kg base × 1, oral, plus chloroquine",4R
same,Relapse,"[4]; 0.4375 mg/kg base × 1, oral, without chloroquine",4R
same,Cure,"[4]; 0.875 mg/kg base × 1, oral, plus chloroquine",4C
same,Relapse,[4]; [16],1R
same,Suppressive failure,[4]; [16],3SF
same,Cure,[4]; [13],2C
same,Suppressive failure,"[4]; 1.75 mg/kg base × 1, oral, without chloroquine",4SF
same,Cure,[4]; [17],1C
same,Suppressive failure,[4]; [17],1SF
same,Cure,"[4]; 7 mg/kg base × 1, oral, without chloroquine",2C
same,Cure,[4]; [18],1C
same,Suppressive failure,[4]; [18],1SF
same,Activity at 3.5 mg/kg (×1),[4],equally active
same,Fully curative dose level,[4],0.875 mg/kg
same,Molar Primaquine Index,[4]; with chloroquine co-administration,19
same,LD50,[8]; female,577 mg/kg
same,LD50,[8]; male,259 mg/kg
same,LD50,[9],174 mg/kg
